Source: PMC9583845, “Characterization of the chicken melanocortin 5 receptor and its potential role in regulating hepatic glucolipid metabolism” (Frontiers in Physiology, 2022)
“Also recorded” adds a separate entry of the source. One block for each compound: values may come before it.

What was measured:
[1] = test system: ELOVL6 mRNA, primary chicken hepatocytes; assay: ELOVL6 mRNA in primary chicken hepatocytes, RT-qPCR; format: cell-based; details: 6 h, N = 4, Figures 8A-C
Description: (§1) To evaluate the effect of ACTH1-39 on chicken liver, the chicken hepatocytes were prepared and maintained as a monolayer culture. Briefly, one-month-old male chicken hepatocytes were isolated by perfusion of a liver with Ca^2+-free KRB buffer to remove blood cells, and being digested with 0.25% collagenase-I for 10 min. Hepatocytes were obtained following filtering and washing using M199 medium. Then the hepatocytes were plated in a Corning CellBIND 48-well microplate (Corning, NY, cat. no.3338) with M199 medium containing 100 U/ml penicillin and […] streptomycin (Gibco), 5 μg/ml bovine insulin (Sigma), and 5% FBS at 37°C in a 5% CO2 atmosphere. To adhere to the wall, the cells were incubated on the 48-well plate for 4 h.
(§2) For quantitative real-time PCR, primary cultured chicken hepatocytes were treated with various concentrations of ACTH1-39 (or other composition) at 37°C for 6 h. The relative amount of mRNA was calculated using the comparative Ct method. Chicken β-actin gene was used as the reference gene. Amplification of specific transcripts was confirmed by analyzing the melting curve profile performed at the end of each run and by determining the size of the PCR products using agarose electrophoresis and ethidium bromide staining.

[2] = test system: THRSPA mRNA, primary chicken hepatocytes; assay: THRSPA mRNA in primary chicken hepatocytes, RT-qPCR; format: cell-based; details: 6 h, N = 4, Figures 8D-F
Description: as §1, §2

[3] = test system: MC5R mRNA, primary chicken hepatocytes; assay: MC5R mRNA in primary chicken hepatocytes, RT-qPCR; format: cell-based; details: primary chicken hepatocytes, 6 h, N = 4, vs β-actin, Figures 6C-E
Description: as §1, with “h. For quantitative real-time PCR, primary cultured chicken hepatocytes were treated with various concentrations of ACTH1-39 (or other composition) at 37°C for 6 h. The relative amount of mRNA was calculated using the comparative Ct method. Chicken β-actin gene was used as the reference gene. Amplification of specific transcripts was confirmed by analyzing the melting curve profile performed at the end of each run and by determining the size of the PCR products using agarose electrophoresis and ethidium bromide staining.” for “h.”

[4] = test system: AC/cAMP/PKA signaling (cMC5R); assay: Inhibition of ACTH- or α-MSH-stimulated luciferase activity in CHO cells expressing cMC5R; format: cell-based, chicken; details: for inhibition of ACTH-stimulated luciferase activity: inhibitor (H89 10 μM, MDL 5 μM) added 0.5 h before ACTH (10 nM, 6 h), Figure 2E; for inhibition of α-MSH-stimulated luciferase activity: inhibitor (H89 10 μM, MDL 5 μM) added 0.5 h before α-MSH (10 nM, 6 h), Figure 2F
Description: (§3) In brief, CHO cells were cultured on a six-well plate (Nunc, Roskilde, Denmark) and grown for 24 h before transfection. The cells were then transfected with a mixture containing 700 ng pGL3-CRE-Luciferase reporter construct, 200 ng of receptor expression plasmid (or empty pcDNA3.1 vector as a negative control), 20 ng of pRL-TK construct (containing a Renilla luciferase gene, used as an internal control), and 2 μl jetPRIME transfection reagent (Polyplus Transfection, Illkirch, France) in 200 μL buffer. Twenty-four hours later, CHO cells were sub-cultured into a 96-well plate at 37°C for an additional 24 h before treatment. After removal of the medium from the 96-well plate, the cells were treated with 100 μl ligand-containing medium (or ligand-free medium) for 6 h. Finally, CHO cells were lysed with 1 × passive lysis buffer for luciferase assay (Promega) and the luciferase activity of the cell lysate was measured by a Multimode Microplate Reader (TriStar LB941, EG&G Berthold, Germany) according to the manufacturer’s instruction.
To test whether cMRAP1 and cMRAP2 can alter the pharmacological properties of cMC5R, CHO cells co-expressing MC5R and cMRAP1/cMRAP2 were treated with chicken ACTH1–39/α-MSH, and the relative potential of these two peptides to activate the receptor was also determined using the pGL3-CRE-luciferase reporter system. At the same time, H89 (a PKA inhibitor, 10 μM) and MDL12330 A (an AC inhibitor, 5 μM) were used to further determine the signal pathways activated by ACTH1-39/α-MSH.

[5] = biological target: T1, chicken MC5R (Gallus gallus, UniProt O73671); assay: pGL3-CRE-luciferase reporter assay, CHO cells expressing chicken MC5R; format: cell-based; details: for ability to activate / sensitivity of cMC5R (in words, ranking): CHO cells expressing cMC5R; for EC50: Figure 2B, CHO cells transiently expressing cMC5R, 10^−12–10^−6 M, 6 h, mean ± SEM of three replicates (N = 3), representative of three independent experiments, read-out: EC50 (activation of cMC5R)
Excerpt: All chemicals were purchased from Sigma-Aldrich (St. Louis, MO, United States) and the restriction enzymes were obtained from TaKaRa (Dalian, China). […] All primers used in this study were synthesized by Beijing Genome Institute (BGI, China) and listed in Supplementary Table 1.
The expression plasmids encoding MC5R, MRAP1 and MRAP2 were established by cloning their entire open reading frame (ORF) into the pcDNA3.1 (+) expression vector (Invitrogen).
as §3, with “The” for “In brief, CHO cells were cultured on a six-well plate (Nunc, Roskilde, Denmark) and grown for 24 h before transfection. The”, “Twenty-four hours later, CHO cells were sub-cultured into a 96-well plate at 37°C for an additional 24 h before treatment.” left out
All statistical analysis was performed using GraphPad Prism 9 (Graph Pad Software Inc., San Diego, CA). The dose-response curves were constructed using nonlinear regression models. Student’s test was used to compare two groups, for more than two groups one-way ANOVA was performed followed by Dunnett’s test. To validate our results, all in-vitro experiments were repeated three times, and representative data are reported.

[6] = test system: hMC5R + MRAP2; details: in vitro; ref Chan et al., 2009; cited from earlier work
Excerpt: Our results were consistent with previous results. […] In zebrafish, MRAP2a decreased the surface expression and efficacy of MC5Ra/MC5Rb, but not MRAP2b, in the same manner as mouse MRAP2 did ([Zhu et al., 2019]). In ricefield eel (Monopterus albus), two isoforms of MRAP2 (maMRAP2X1 and maMRAP2X2) significa ...

[7] = test system: chicken MC5R D119A; details: ref Min et al., 2019; cited from earlier work
[8] = test system: chicken MC5R D204A; details: ref Min et al., 2019; cited from earlier work
[9] = test system: chicken MC5R F254A; details: ref Min et al., 2019; cited from earlier work
[10] = biological target: T1, chicken MC5R; set-up: method as in 3 sources, ref Ling et al., 2004 ||| ref Dores et al., 2020 ||| ref Schioth et al., 1997; Ling et al., 2004; details: ref Schioth et al., 1997; Ling et al., 2004; cited from earlier work
[11] = test system: human MC5R; details: ref Schioth et al., 1997; Ling et al., 2004; cited from earlier work
Excerpt: The luciferase reporter system was then employed to investigate the signal pathway of MC5R coupling. […] Human peptides have previously been ...

T1 sequence (O73671 1-325): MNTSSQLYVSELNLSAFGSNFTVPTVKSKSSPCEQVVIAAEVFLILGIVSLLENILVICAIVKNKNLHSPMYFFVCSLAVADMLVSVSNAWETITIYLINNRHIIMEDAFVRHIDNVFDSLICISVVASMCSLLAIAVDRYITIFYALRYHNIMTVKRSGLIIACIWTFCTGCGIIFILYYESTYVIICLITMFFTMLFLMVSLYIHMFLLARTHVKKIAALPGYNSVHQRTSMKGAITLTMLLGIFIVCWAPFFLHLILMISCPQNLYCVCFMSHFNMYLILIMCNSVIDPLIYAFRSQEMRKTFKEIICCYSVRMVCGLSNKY

Compound: Nc1ncnc2c1nc(Br)n2[C@@H]1O[C@@H]2COP(=O)(O)O[C@H]2[C@H]1O [8-Br-cAMP]
ELOVL6 mRNA expression [1]: not affected; also recorded: did not affect the expression
THRSPA mRNA expression [2]: not affected; also recorded: did not affect the expression
MC5R mRNA abundance (in words) [3]: dose-dependent increase in MC5R mRNA abundance; also recorded: enhance the expression of MC5R in cultured hepatocytes in a dose-dependent manner

Compound: O=S(=O)(NCCNC/C=C/c1ccc(Br)cc1)c1cccc2cnccc12 [H89]
inhibition of ACTH-stimulated luciferase activity [4]: significantly inhibit
inhibition of α-MSH-stimulated luciferase activity [4]: significantly inhibit

Compound: Cl.c1ccc(C2CCCC2NC2=NCCCCCCCCCCC2)cc1 (stereo not drawn) [MDL12330 A]
inhibition of ACTH-stimulated luciferase activity [4]: significantly inhibit
inhibition of α-MSH-stimulated luciferase activity [4]: significantly inhibit

Compound: C=C[C@@]1(C)CC(=O)[C@]2(O)[C@@]3(C)[C@@H](O)CCC(C)(C)[C@@H]3[C@H](O)[C@H](OC(C)=O)[C@@]2(C)O1 [forskolin]
ELOVL6 mRNA expression [1]: did not affect the expression
ELOVL6 mRNA expression ([1]; listed as Forskolin): not affected
THRSPA mRNA expression [2]: did not affect the expression
THRSPA mRNA expression ([2]; listed as Forskolin): not affected
MC5R mRNA abundance (in words) [3]: significantly increased MC5R mRNA abundance; also recorded: enhance the expression of MC5R in cultured hepatocytes in a dose-dependent manner

ability to activate / sensitivity of cMC5R (in words, ranking) [5]: ACTH1-39 ≈ α-MSH > β-MSH > γ-MSH
EC50 [5]: 144 ± 15.4 nM
Compound: Ac-YVMSHFRWNKF-NH2 [γ-MSH]

ability to activate / sensitivity of cMC5R (in words, ranking) [5]: ACTH1-39 ≈ α-MSH > β-MSH > γ-MSH
EC50 [5]: 38.7 ± 6.51 nM
Compound: H-DGGSYRMRHFRWHAPLKD-OH [β-MSH]

Compound: NDP-MSH
efficacy at hMC5R with MRAP2 [6]: reduced the efficacy of hMC5R to NDP-MSH
response of D119A mutant [7]: completely unresponsive
response of D204A mutant [8]: completely unresponsive
reactivity of F254A mutant [9]: significantly reduced the reactivity

Compound: SHU9119
response of D119A mutant [7]: completely unresponsive
response of D204A mutant [8]: completely unresponsive

Compound: hACTH1-39: human ACTH1-39 (SYSMEHFRWGKPVGKKRRPVKVYPNGAEDESAEAFPLEF; Corticotropin; UniProt P01189 138-176, looked up)
ability of hACTH1-39 vs hACTH1-24 to activate chicken MC5R [10]: no different
ability of hACTH1-39 vs hACTH1-24 to activate human MC5R [11]: no different
